The text below walks through data of BindingDB's records for patent US20240043403 (Astellas Pharma, 2024).

The target of this assay is Diacylglycerol kinase zeta (Homo sapiens, UniProt Q13574). The assay is described as follows: Evaluation of DGKdelta Inhibitory Effect. How it is done: To a 384-well plate (Greiner Bio-One Co., Ltd.), 3 μL of a DGK ξ enzyme dissolved in an assay buffer (40 mM Tris-HCl pH 7.5, 10 mM MgCl2, 1 mM dithiothreitol (DTT) and 0.1 mg/mL bovine serum albumin (BSA)) (90 ng/mL) was added, and 3 μL of the test compound diluted with the same assay buffer was added so that an intended final concentration was obtained. The mixture was left standing at room temperature for 15 minutes, 3 μL of a substrate (150 μM 1-oleoyl-2-acetyl-sn-glycerol (Sigma-Aldrich Co. LLC), 480 μM phosphatidylserine (Avanti, Inc.) and 150 μM UltraPure-ATP (attached to ADP-Glo)) was then added, and the mixture was left standing at room temperature for 30 minutes to react. Thereafter, 3 μL of an ADP-Glo Reagent was added, and the mixture was left standing at room temperature for 40 minutes to stop the enzyme reaction. Further, 6 μL of a Kinase-Detection Reagent was added, the mixture was left standing at room temperature for 30 minutes, and the luminescence was then measured using ARVO X3 (PerkinElmer, Inc.). The half maximal inhibitory concentration (IC50) was calculated by Sigmoid-Emax model non-linear regression analysis, where the signal value in solvent treatment was set to 0% inhibition and the signal value without addition of the DGK ξ enzyme was set to 100% inhibition.
Chain of Diacylglycerol kinase zeta (Q13574 whole entry): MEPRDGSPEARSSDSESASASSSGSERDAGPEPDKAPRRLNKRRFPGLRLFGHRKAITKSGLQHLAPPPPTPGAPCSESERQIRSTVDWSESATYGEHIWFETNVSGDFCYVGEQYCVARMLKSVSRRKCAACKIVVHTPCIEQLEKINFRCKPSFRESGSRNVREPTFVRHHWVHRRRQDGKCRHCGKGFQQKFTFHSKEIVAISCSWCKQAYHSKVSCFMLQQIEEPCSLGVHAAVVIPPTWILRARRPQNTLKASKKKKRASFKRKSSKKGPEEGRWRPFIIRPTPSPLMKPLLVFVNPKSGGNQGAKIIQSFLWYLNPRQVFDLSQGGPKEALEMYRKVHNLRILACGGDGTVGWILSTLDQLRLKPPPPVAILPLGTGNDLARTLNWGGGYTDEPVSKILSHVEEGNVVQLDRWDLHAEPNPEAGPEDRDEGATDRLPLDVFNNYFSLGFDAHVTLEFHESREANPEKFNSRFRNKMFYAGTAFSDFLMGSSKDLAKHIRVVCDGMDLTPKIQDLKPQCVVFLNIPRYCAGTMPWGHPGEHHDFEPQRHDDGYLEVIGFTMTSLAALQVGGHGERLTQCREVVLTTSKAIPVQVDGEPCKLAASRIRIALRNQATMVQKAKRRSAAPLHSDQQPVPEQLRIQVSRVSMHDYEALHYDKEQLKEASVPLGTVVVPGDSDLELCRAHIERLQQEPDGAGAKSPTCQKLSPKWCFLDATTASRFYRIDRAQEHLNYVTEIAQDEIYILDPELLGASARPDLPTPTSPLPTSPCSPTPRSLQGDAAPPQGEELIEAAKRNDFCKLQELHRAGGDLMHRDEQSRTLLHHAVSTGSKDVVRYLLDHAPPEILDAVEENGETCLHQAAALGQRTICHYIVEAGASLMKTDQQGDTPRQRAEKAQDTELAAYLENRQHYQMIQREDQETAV

One may read the IC50 as the concentration that gives 50% inhibition. A higher IC50 goes with a need for much substance.

Molecule `NC[C@@H]1CCCN(c2c(NC(=O)c3ccn(CC(F)F)n3)ccc(Oc3ccccc3F)c2C(F)(F)F)C1` [US20240043403, Example 1] gave an IC50 of 16 nM.
